Reference: patent US9926267B2, “Covalent inhibitors of K-Ras G12C” (Araxes Pharma LLC, priority 2013, dated 2018)

Molecular target: T1, KRAS G12C 1-169, his-tagged protein, GDP-loaded (Homo sapiens, UniProt P01116, G12C)
T1 construct: KRAS G12C 1-169, his-tagged protein, GDP-loaded
Test: Biochemical assay: covalent binding to KRAS G12C, measured by mass spectrometry
Protocol: Test compounds were prepared as 10 mM stock solutions in DMSO (Fisher cat#BP-231-100). KRAS G12C 1-169, his-tagged protein, GDP-loaded was diluted to 2 μm in buffer (20 mM Hepes, 150 mM NaCl, 1 mM MgCl2). Compounds were tested for activity as follows:
Compounds were diluted to 50× final test concentration in DMSO in 96-well storage plates. Compound stock solutions were vortexed before use and observed carefully for any sign of precipitation. Dilutions were as follow: • For 100 μM final compound concentration, compounds were diluted to 5000 μM (5 μl 10 mM compound stock+5 μl DMSO and mixed well by pipetting. • For 30 μM final compound concentration, compounds were diluted to 1500 μM (3 μl 10 mM compound stock+17 μl DMSO) and mixed well by pipetting. • For […] final compound concentration, compounds were diluted to 500 μM (2 μl 10 mM compound stock+38 μl DMSO) and mixed well by pipetting. 49 μl of the stock protein solution was added to each well of a 96-well PCR plate (Fisher cat#1423027). 1 μl of the diluted 50× compounds were added to appropriate wells in the PCR plate using 12-channel pipettor. Reactions were mixed carefully and thoroughly by pipetting up/down with a 200 μl multi-channel pipettor. The plate was sealed well with aluminum plate seal, and stored in a drawer at room temperature for 2 hrs or 24 hrs. 5 μl of 2% formic acid (Fisher cat#A117) in DI H2O was then added to each well followed by mixing with a pipette. The plate was then resealed with aluminum seal and stored on dry ice until analyzed as described below.
The above described assays were analyzed by mass spectrometry according to the following procedure:
The MS instrument is set to positive polarity, 2 GHz resolution, and low mass (1700) mode and allowed to equilibrate for 30 minutes. The instrument is then calibrated, switched to acquisition mode and the appropriate method loaded.
After another 30 minute equilibration time, a blank batch (i.e., buffer) is run to ensure equipment is operating properly. The samples are thawed at 37° C. for 10 minutes, briefly centrifuged, and transfer to the bench top. Wells A1 and H12 are spiked with 1 uL 500 uM internal standard peptide, and the plates centrifuged at 2000×g for 5 minutes. The method is then run and masses of each individual well recorded.
The masses (for which integration data is desired) for each well are pasted into the platemap and exported from the analysis. Masses for the internal standards are exported as well. The data at 50 ppm is extracted for the +19 charge state, and identity of well A1 is assigned using the internal standard spike and integrated. Peak data is exported as a TOF list and the above steps are repeated individually, for the +20, 21, 22, 23, 24, and charge states.

[1] = Binding activity determined at 24 hrs, Table 8a

T1 sequence (P01116 1-169 isoform P01116-2 G12C): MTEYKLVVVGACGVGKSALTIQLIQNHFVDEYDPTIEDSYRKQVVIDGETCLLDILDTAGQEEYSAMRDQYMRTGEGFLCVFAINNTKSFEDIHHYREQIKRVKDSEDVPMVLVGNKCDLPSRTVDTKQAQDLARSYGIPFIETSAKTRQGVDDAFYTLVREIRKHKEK

Compound	Binding % [1]	other results
C=CC(=O)N1CCN(C(=O)c2cc(-c3cc(Cl)ccc3Cl)c(Cl)cc2OC)CC1CO (stereo not drawn) [VI-6, 1-(2-(hydroxymethyl)-4-(2′,5′,6-trichloro-4-methoxybiphenyl-carbonyl)piperazin-1-yl)prop-2-en-1-one]	++ (++ indicates binding activity greater than 10% and up to 20%)	–
C=CC(=O)N1CCC(N2CCN(C(=O)CNc3cc(Cl)c(C)cc3O)CC2)C1 (stereo not drawn) [Compound V-8, 1-(3-(4-(2-(5-chloro-2-hydroxy-4-methylphenyl-amino)acetyl)piperazin-1-yl)pyrrolidin-1-yl)prop-2-en-1-one]	–	Binding % (Binding activity determined at 24 hrs, Table 7a): ++ (++ indicates binding activity greater than 15% and up to 25%)
C=CC(=O)N1CCN(C(=O)c2cc(Br)c(Cl)cc2O)CC1 [VI-9, 1-(4-(5-bromo-4-chloro-2-hydroxybenzoyl)piperazin-1-yl)prop-2-en-1-one]	+ (+ indicates binding activity from 5% to 10%)	–
CN(C)C/C=C/C(=O)N1CCN(C(=O)c2cc(-c3ccccc3Cl)c(Cl)cc2O)CC1 [VI-24, (E)-1-(4-(2′,6-dichloro-4-hydroxy-[1,1′-biphenyl]-3-carbonyl)piperazin-1-yl)-4-(dimethylamino)but-2-en-1-one]	++++ (++++ indicates binding activity greater than 30%)	–
C=CC(=O)N1CCN(C(=O)c2nc(-c3ccccc3Cl)sc2Cl)CC1 [VI-20, 1-(4-(5-chloro-2-(2-chlorophenyl)thiazole-4-carbonyl)piperazin-1-yl)prop-2-en-1-one]	+ (+ indicates binding activity from 5% to 10%)	–
C=CC(=O)N1CCN(C(=O)c2cn(-c3cc(Cl)ccc3Cl)c(=O)cc2O)CC1 [VI-28, 5-(4-acryloylpiperazine-1-carbonyl)-1-(2,5-dichlorophenyl)-4-hydroxypyridin-2(1H)-one]	++ (++ indicates binding activity greater than 10% and up to 20%)	–
C=CC(=O)N1CCN(C(=O)c2cc(-c3ccccc3Cl)c(Cl)cc2OC)CC1 [VI-1, 1-(4-(2′,6-dichloro-4-methoxybiphenyl-carbonyl)piperazin-1-yl)prop-2-en-1-one]	+ (+ indicates binding activity from 5% to 10%)	–
C=CC(=O)N1CCN(C(=O)c2cc(-c3ccccc3)c(Cl)cc2O)CC1 [VI-29, 1-(4-(6-chloro-4-hydroxybiphenyl-carbonyl)piperazin-1-yl)prop-2-en-1-one]	+++ (+++ indicates binding activity greater than 20% and up to 30%)	–
C=CC(=O)N1CCN(C(=O)c2nc(-c3ccccc3Cl)c(C)s2)CC1 [VI-22, 1-(4-(4-(2-chlorophenyl)-5-methylthiazole-2-carbonyl)piperazin-1-yl)prop-2-en-1-one]	+ (+ indicates binding activity from 5% to 10%)	–
C=CS(=O)(=O)N1CCN(C(=O)c2ccc(Cl)c(Cl)c2)CC1 [VI-34, (3,4-dichlorophenyl)(4-(vinylsulfonyl)piperazin-1-yl)methanone]	+++ (+++ indicates binding activity greater than 20% and up to 30%)	–
C=CC(=O)N1CCN(C(=O)c2cc(-c3cc(Cl)ccc3Cl)c[nH]2)CC1 [VI-31, 1-(4-(4-(2,5-dichlorophenyl)-1H-pyrrole-2-carbonyl)piperazin-1-yl)prop-2-en-1-one]	+ (+ indicates binding activity from 5% to 10%)	–
C=CC(=O)N1CCN(C(=O)c2cc(I)c(Cl)cc2OC)CC1 [VI-2, 1-(4-(4-chloro-5-iodo-2-methoxybenzoyl)piperazin-1-yl)prop-2-en-1-one]	++ (++ indicates binding activity greater than 10% and up to 20%)	–
C=CC(=O)N1CCN(C(=O)c2nc(-c3ccccc3Cl)cs2)CC1 [VI-19, 1-(4-(4-(2-chlorophenyl)thiazole-2-carbonyl)piperazin-1-yl)prop-2-en-1-one]	+ (+ indicates binding activity from 5% to 10%)	–
C=CC(=O)N1CCN(C(=O)c2cc(Cl)c(-c3cccc(Cl)c3)cc2O)CC1 [VI-43, 1-(4-(2,3′-dichloro-5-hydroxybiphenyl-carbonyl)piperazin-1-yl)prop-2-en-1-one]	–	Binding % (Binding activity determined at 2 hrs, Table 8b): + (+ indicates binding activity from 5% to 20%)
C=CC(=O)N1CCN(C(=O)c2cc(-c3ccccc3Cl)n[nH]2)CC1 [VI-11, 1-(4-(3-(2-chlorophenyl)-1H-pyrazole-5-carbonyl)piperazin-1-yl)prop-2-en-1-one]	+ (+ indicates binding activity from 5% to 10%)	–
